Here are results for one compound from patent US9492471B2, “Methods of treating a disease or disorder associated with Bruton'S Tyrosine Kinase” (Celgene Avilomics Research, Inc., priority 2013, dated 2016).

Structures are written as SMILES. Like-named read-outs stand apart in the source and are kept apart here.

What all share (experiment): HotSpot kinase profiling
Type in all cases: biochemical

One test concerns the target T1, ALK4/ACVR1B (Homo sapiens, UniProt P36896).
T1 construct: purchased Reaction Biology Corp
T1 sequence (P36896 24-505): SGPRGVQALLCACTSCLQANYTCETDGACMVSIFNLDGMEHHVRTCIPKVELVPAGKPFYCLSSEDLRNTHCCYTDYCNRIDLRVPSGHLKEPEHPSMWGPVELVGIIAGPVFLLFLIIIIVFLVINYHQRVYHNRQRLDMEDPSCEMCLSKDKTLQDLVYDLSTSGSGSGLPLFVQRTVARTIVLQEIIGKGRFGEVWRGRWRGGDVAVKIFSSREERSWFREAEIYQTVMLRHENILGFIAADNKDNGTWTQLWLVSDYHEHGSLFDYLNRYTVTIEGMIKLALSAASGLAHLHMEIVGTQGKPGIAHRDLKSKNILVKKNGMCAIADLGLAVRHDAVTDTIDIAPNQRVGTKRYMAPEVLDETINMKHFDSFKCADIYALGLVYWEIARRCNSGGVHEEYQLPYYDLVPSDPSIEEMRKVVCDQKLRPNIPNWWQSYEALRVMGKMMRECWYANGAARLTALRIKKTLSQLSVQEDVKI
In a few lines:
(§1)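 Radio-isotope P81 filtration format. Substrate + required cofactors in reaction buffer, kinase added, 2 h RT. Stop, wash with 0.1% phosphoric acid, detect. % inhibition vs DMSO; mean of duplicates where repeated.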

In the next test the target is T2, CSK (Homo sapiens, UniProt P41240).
T2 construct: purchased Reaction Biology Corp
T2 sequence (P41240 whole entry): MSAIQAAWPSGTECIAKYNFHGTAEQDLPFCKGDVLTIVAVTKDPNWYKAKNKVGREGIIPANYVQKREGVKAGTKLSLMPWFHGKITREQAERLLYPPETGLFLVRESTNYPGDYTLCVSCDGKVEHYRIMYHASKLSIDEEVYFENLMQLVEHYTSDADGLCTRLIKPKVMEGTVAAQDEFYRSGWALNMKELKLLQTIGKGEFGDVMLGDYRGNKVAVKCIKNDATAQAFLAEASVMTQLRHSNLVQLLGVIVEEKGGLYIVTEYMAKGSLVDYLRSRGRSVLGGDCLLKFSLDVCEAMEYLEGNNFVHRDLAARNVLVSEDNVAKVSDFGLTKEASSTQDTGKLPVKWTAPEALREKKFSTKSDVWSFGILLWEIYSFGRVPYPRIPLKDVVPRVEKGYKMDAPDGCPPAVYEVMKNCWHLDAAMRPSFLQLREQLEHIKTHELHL
In a few lines:
as §1

The target of a further test is T3, EGFR (Homo sapiens, UniProt P00533).
T3 construct: purchased Reaction Biology Corp
T3 sequence (P00533 25-1210): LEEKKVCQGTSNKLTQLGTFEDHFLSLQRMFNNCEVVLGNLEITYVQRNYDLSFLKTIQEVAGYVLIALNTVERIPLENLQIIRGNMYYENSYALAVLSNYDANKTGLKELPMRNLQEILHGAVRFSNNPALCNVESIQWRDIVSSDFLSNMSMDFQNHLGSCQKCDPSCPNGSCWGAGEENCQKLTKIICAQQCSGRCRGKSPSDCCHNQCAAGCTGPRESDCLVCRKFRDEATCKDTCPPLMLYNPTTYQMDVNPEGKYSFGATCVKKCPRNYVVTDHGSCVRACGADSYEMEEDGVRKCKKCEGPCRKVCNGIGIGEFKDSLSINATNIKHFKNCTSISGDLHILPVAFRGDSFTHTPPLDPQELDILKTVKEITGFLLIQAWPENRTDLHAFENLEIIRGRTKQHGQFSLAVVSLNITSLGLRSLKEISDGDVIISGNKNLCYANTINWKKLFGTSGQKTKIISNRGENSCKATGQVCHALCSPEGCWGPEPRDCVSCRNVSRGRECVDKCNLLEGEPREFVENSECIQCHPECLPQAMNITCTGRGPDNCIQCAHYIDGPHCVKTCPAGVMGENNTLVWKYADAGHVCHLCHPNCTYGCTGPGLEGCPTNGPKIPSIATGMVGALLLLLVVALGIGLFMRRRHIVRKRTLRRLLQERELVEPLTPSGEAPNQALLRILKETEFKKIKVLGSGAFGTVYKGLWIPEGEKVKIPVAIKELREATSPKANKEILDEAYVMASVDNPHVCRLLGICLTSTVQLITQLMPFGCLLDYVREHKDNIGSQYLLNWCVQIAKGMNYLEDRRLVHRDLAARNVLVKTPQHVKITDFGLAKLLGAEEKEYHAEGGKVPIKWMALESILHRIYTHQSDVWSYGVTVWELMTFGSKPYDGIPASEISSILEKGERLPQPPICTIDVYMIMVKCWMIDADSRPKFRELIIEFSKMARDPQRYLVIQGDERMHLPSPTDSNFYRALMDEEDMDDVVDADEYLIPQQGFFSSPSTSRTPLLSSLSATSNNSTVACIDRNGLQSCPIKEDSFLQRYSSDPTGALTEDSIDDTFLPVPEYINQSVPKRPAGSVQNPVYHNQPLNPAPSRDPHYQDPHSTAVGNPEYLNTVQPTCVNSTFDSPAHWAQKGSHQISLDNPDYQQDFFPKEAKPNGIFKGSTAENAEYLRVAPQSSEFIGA
A digest of the protocol: as §1

A further test deals with T4, DCAMKL1 (Homo sapiens, UniProt O15075).
T4 construct: purchased Reaction Biology Corp
T4 sequence (O15075 1-740): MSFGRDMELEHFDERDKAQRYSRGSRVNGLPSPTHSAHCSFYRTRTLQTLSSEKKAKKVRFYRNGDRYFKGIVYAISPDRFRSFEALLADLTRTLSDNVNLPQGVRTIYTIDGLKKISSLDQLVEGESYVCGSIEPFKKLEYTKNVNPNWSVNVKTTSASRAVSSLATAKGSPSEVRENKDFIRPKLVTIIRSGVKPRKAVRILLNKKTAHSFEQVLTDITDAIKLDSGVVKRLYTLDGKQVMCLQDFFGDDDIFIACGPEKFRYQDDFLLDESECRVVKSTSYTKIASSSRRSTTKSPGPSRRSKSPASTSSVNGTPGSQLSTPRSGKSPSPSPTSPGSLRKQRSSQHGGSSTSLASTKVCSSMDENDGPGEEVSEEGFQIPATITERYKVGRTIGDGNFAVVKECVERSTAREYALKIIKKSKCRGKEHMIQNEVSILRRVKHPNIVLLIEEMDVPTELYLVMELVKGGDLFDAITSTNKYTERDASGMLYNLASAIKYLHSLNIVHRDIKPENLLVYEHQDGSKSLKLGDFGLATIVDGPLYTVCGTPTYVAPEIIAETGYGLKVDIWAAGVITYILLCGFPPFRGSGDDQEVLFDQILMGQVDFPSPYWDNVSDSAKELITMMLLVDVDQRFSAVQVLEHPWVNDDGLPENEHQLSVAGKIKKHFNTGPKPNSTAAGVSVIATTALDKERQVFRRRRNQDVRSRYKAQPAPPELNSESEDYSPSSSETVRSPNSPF
A digest of the protocol:
as §1

A further test concerns the target T5, TAOK1 (Homo sapiens, UniProt Q7L7X3).
T5 construct: purchased Reaction Biology Corp
T5 sequence (Q7L7X3 1-1001): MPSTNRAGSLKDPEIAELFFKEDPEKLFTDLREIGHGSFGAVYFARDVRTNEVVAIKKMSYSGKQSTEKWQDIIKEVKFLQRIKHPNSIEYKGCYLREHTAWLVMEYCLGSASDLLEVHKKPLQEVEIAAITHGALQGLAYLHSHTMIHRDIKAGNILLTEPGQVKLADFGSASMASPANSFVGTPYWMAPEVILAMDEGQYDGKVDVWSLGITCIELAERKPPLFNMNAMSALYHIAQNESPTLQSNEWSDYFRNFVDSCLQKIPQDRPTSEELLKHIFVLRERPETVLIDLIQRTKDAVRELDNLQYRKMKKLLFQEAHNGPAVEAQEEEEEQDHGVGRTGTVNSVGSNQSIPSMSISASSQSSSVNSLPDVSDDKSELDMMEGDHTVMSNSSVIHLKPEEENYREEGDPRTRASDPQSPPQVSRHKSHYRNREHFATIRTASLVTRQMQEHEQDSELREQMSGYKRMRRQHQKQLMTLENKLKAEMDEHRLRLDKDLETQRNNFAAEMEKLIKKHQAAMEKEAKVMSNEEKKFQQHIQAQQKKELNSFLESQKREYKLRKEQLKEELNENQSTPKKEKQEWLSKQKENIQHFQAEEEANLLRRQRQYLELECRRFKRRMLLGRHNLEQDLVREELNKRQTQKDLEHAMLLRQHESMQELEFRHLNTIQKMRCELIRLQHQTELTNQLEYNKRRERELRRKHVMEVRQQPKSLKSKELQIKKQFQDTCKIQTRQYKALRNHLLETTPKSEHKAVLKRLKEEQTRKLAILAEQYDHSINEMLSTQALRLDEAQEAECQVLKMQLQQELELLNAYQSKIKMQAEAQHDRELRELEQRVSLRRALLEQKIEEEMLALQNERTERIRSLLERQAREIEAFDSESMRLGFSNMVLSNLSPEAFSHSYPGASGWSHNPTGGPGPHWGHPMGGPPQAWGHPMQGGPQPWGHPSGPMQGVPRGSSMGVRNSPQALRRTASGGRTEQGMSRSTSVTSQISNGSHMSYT
In a few lines: as §1

Where [1] appears, read: read-out: % Enzyme Activity (relative to DMSO controls) Run 1.
[2] abbreviates: read-out: % Enzyme Activity (relative to DMSO controls) Run 2.

One may read the inhibition as the drop in the measured response relative to a control, in per cent. As to `C=CC(=O)Nc1cccc(Nc2nc(Nc3ccc(OCCOC)c(F)c3)ncc2F)c1` [Compound 2], the inhibition at 3 µM was -42.2% at ALK4/ACVR1B; 18.2% against CSK; 80.3% against EGFR; 2.02% against DCAMKL1; 1.63% on TAOK1. In addition, the remaining activity at 3 µM was determined as 141% at ALK4/ACVR1B (setting [1]); 144% at ALK4/ACVR1B (setting [2]); 81.7% at CSK (setting [1]); 81.8% at CSK (setting [2]); 19.2% on EGFR (setting [1]); 20.2% on EGFR (setting [2]). In addition, the remaining activity at 3 µM on DCAMKL1 (setting [1]) was 98.4%; at DCAMKL1 (setting [2]), 97.5%; on TAOK1 (setting [1]) it was 100%; at TAOK1 (setting [2]), 96.2%.
